Laboratory results taken from ChEMBL document CHEMBL4507319 (2021).

Tests used:
U-251 = test: U251 cell line Proliferation assay; assay type: functional, Homo sapiens; conditions: time 3 day
[1] = molecular target: T1, Serine/threonine-protein kinase 4 (Homo sapiens) (UniProt Q13043); test: MST1(h) Eurofins kinase panel; conditions: Compound concentration 1.0 uM
T1 sequence (whole entry): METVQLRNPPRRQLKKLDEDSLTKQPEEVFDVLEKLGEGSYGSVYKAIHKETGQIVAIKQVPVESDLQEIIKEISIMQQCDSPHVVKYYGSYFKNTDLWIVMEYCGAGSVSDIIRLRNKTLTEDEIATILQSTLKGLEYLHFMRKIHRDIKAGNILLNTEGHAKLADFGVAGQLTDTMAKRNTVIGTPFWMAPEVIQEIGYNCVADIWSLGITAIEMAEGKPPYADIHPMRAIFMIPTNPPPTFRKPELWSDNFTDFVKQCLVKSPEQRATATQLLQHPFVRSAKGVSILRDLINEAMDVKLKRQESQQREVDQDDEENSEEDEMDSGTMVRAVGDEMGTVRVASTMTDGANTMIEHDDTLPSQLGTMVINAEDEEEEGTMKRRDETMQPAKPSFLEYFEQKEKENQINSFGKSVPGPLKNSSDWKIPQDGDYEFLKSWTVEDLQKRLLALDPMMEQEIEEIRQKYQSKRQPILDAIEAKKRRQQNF

[2] = molecular target: Casein kinase II subunit alpha' (Homo sapiens) (UniProt P19784); test: CK2alpha2(h) Eurofins kinase panel; conditions: Compound concentration 1.0 uM
[3] = molecular target: T2, Testis-specific serine/threonine-protein kinase 3 (Homo sapiens) (UniProt Q96PN8); test: TSSK3(h) Eurofins kinase panel; conditions: Compound concentration 1.0 uM
T2 sequence (whole entry): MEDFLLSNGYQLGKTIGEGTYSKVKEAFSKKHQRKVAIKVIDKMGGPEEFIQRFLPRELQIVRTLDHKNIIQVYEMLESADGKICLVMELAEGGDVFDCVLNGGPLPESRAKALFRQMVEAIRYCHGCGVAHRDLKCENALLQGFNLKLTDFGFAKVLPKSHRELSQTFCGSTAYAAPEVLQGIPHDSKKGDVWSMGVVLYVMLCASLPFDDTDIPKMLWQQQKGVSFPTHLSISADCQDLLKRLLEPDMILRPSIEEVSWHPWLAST

[4] = molecular target: Receptor-interacting serine/threonine-protein kinase 2 (Homo sapiens) (UniProt O43353); test: RIPK2(h) Eurofins kinase panel; conditions: Compound concentration 1.0 uM
[5] = molecular target: Hepatocyte growth factor receptor (Homo sapiens) (UniProt P08581); conditions: Compound concentration 1.0 uM
[6] = molecular target: Protein-tyrosine kinase 2-beta (Homo sapiens) (UniProt Q14289); test: Pyk2(h) Eurofins kinase panel; conditions: Compound concentration 1.0 uM
[7] = molecular target: Activated CDC42 kinase 1 (Homo sapiens) (UniProt Q07912); test: ACK1(h) Eurofins kinase panel; conditions: Compound concentration 1.0 uM
A2780 = test: A2780 cell line Proliferation assay; assay type: functional, Homo sapiens; conditions: time 3 day
[8] = molecular target: T3, Dual specificity protein kinase TTK (Homo sapiens) (UniProt P33981); test: TTK(h) Eurofins kinase panel; conditions: Compound concentration 1.0 uM
T3 sequence (whole entry): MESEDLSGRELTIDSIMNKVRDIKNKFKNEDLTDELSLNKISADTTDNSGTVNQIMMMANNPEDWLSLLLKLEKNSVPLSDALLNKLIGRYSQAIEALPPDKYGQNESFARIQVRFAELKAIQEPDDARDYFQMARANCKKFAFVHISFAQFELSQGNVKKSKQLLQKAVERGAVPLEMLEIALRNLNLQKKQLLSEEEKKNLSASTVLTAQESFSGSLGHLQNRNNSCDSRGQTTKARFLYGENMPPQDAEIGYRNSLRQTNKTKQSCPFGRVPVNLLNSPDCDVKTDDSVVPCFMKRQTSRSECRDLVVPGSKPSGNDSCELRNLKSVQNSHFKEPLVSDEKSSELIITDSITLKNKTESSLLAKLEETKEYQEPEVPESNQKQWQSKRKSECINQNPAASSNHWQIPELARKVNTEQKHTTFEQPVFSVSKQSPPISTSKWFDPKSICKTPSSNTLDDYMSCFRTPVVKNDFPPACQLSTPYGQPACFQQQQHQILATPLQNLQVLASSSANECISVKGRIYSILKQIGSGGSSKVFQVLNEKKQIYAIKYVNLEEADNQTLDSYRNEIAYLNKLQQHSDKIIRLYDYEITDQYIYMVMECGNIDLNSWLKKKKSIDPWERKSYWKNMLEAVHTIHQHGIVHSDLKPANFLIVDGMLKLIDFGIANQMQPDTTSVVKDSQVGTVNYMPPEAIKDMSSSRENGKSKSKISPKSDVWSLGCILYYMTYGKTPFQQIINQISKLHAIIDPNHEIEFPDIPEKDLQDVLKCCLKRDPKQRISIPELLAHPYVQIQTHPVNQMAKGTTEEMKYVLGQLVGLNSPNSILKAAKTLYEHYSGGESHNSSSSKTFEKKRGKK

Aurora kinase A = Aurora kinase A (Homo sapiens, UniProt O14965); test: (§1) Aurora-A(h) Eurofins kinase panel
[9] = molecular target: T4, Aurora kinase A (Homo sapiens) (UniProt O14965); test: as §1; conditions: Compound concentration 1.0 uM
T4 sequence (whole entry): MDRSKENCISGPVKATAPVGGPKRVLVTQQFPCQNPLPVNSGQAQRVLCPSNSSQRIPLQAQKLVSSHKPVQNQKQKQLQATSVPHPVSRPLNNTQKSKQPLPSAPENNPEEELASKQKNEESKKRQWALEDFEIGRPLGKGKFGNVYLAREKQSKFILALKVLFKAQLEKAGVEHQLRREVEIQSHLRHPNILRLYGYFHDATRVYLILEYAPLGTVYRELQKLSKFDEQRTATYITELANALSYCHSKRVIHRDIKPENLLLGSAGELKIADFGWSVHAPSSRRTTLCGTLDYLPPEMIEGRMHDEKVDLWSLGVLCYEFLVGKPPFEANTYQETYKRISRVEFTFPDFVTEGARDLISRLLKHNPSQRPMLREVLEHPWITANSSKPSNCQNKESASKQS

[10] = molecular target: Ribosomal protein S6 kinase alpha-4 (Homo sapiens) (UniProt O75676); conditions: Compound concentration 1000.0 nM
Ribosomal protein S6 kinase alpha-4 (Homo sapiens), sequence (O75676 whole entry, looked up): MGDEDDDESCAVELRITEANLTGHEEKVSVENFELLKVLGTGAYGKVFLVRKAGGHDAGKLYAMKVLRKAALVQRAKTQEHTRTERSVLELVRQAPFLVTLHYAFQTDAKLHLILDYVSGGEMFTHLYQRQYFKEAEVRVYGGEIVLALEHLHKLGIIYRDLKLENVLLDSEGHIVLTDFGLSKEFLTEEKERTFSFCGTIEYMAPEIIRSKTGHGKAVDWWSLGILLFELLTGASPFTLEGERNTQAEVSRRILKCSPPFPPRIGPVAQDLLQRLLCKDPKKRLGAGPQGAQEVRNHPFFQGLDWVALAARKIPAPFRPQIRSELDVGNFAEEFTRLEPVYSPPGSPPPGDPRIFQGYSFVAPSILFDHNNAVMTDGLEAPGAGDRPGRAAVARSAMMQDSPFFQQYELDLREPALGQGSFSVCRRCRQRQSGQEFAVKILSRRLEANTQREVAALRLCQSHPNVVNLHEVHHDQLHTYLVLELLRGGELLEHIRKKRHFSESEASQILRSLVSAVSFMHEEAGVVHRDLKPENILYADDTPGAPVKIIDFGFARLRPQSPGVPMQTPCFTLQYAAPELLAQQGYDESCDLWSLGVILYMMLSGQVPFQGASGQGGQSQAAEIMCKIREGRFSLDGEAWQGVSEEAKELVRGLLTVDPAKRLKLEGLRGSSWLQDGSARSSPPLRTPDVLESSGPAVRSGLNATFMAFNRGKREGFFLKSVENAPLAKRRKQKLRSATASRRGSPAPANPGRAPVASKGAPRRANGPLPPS

Casein kinase II subunit alpha' (Homo sapiens), sequence (P19784 whole entry, looked up): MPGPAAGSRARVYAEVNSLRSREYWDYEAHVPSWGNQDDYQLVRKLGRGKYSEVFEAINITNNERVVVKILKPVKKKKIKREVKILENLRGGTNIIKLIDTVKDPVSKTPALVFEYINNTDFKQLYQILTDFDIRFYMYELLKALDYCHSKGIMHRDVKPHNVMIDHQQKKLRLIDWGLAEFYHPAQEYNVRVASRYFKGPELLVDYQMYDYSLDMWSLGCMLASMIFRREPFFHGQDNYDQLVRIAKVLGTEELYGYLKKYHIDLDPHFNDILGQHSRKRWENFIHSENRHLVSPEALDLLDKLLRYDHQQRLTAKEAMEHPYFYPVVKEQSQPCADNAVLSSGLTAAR
Activated CDC42 kinase 1 (Homo sapiens), sequence (Q07912 whole entry, looked up): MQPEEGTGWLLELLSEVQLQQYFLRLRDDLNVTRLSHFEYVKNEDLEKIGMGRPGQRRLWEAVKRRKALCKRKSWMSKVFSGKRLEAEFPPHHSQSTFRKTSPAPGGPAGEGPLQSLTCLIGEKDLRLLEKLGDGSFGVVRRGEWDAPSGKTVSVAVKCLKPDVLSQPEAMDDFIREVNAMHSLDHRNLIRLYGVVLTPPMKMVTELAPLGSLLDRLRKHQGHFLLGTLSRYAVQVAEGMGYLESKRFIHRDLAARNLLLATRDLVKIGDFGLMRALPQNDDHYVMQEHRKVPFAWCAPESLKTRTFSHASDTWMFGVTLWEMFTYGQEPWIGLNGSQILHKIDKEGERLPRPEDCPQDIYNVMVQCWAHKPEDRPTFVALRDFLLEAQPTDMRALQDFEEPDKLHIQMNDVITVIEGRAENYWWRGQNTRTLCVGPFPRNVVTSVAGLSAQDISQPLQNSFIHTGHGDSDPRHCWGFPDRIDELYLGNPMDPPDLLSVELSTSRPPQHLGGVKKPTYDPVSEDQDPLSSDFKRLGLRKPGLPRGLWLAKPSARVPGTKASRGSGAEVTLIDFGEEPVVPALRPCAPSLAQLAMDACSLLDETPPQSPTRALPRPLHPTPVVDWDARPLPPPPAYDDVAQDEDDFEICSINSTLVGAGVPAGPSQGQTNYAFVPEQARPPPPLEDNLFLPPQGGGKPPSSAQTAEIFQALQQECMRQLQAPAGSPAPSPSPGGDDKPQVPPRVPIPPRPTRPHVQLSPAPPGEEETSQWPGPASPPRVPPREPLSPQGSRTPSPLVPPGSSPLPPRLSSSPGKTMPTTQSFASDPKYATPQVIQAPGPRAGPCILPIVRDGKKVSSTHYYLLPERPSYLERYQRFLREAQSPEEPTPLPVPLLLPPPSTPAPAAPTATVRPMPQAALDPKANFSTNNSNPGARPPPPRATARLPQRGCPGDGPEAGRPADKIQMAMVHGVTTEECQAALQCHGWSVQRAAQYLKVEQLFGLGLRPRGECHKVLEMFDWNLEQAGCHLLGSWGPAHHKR
Receptor-interacting serine/threonine-protein kinase 2 (Homo sapiens), sequence (O43353 whole entry): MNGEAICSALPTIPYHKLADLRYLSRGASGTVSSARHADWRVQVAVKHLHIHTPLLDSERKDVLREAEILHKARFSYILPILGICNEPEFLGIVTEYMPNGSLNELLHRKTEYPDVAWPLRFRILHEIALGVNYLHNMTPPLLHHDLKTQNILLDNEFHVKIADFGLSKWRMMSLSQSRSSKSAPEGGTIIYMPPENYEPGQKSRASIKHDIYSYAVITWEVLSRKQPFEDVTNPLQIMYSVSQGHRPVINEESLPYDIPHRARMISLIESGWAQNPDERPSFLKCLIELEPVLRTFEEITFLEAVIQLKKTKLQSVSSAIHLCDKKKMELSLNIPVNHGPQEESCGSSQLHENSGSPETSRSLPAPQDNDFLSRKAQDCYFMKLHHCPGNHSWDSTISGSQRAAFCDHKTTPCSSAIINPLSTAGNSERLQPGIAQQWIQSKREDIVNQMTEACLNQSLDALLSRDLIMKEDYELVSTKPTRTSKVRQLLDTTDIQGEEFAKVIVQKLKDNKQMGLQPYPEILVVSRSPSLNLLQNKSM
Hepatocyte growth factor receptor (Homo sapiens), sequence (P08581 whole entry): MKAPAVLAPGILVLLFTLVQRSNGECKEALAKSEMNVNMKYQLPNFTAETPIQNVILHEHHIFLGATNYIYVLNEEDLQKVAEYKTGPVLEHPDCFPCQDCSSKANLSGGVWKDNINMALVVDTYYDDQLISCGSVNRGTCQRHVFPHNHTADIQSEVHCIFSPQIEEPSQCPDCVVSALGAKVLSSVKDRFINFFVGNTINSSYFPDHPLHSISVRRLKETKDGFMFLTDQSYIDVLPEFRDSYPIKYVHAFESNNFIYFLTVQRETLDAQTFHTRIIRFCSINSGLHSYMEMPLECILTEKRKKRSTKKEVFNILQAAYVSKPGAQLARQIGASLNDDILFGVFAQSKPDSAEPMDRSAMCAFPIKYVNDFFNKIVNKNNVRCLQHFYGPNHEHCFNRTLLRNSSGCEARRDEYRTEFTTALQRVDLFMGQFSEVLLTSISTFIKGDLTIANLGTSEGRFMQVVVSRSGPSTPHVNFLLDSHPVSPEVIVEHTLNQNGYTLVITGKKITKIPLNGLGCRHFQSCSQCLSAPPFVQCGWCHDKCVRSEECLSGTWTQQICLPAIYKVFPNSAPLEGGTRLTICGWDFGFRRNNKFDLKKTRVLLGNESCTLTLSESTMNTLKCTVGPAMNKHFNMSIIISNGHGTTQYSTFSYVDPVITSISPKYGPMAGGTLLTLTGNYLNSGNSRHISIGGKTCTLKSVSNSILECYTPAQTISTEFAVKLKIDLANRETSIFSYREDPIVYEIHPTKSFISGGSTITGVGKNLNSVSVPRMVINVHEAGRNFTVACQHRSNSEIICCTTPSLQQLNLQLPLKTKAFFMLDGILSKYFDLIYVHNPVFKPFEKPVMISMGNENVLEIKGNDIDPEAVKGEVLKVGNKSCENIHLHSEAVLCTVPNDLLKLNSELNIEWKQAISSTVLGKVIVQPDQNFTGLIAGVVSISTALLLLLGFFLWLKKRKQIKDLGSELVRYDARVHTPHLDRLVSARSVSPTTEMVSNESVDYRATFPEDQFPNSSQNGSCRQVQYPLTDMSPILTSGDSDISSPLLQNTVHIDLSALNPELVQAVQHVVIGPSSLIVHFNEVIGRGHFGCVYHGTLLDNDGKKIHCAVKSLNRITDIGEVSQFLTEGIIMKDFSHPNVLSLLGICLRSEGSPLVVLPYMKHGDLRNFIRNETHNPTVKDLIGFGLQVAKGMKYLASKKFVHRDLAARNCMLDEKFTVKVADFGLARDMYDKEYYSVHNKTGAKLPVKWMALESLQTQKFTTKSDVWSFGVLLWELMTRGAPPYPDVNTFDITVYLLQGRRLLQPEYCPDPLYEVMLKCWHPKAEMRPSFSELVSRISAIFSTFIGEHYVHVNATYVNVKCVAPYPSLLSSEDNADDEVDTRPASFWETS
Protein-tyrosine kinase 2-beta (Homo sapiens), sequence (Q14289 whole entry, looked up): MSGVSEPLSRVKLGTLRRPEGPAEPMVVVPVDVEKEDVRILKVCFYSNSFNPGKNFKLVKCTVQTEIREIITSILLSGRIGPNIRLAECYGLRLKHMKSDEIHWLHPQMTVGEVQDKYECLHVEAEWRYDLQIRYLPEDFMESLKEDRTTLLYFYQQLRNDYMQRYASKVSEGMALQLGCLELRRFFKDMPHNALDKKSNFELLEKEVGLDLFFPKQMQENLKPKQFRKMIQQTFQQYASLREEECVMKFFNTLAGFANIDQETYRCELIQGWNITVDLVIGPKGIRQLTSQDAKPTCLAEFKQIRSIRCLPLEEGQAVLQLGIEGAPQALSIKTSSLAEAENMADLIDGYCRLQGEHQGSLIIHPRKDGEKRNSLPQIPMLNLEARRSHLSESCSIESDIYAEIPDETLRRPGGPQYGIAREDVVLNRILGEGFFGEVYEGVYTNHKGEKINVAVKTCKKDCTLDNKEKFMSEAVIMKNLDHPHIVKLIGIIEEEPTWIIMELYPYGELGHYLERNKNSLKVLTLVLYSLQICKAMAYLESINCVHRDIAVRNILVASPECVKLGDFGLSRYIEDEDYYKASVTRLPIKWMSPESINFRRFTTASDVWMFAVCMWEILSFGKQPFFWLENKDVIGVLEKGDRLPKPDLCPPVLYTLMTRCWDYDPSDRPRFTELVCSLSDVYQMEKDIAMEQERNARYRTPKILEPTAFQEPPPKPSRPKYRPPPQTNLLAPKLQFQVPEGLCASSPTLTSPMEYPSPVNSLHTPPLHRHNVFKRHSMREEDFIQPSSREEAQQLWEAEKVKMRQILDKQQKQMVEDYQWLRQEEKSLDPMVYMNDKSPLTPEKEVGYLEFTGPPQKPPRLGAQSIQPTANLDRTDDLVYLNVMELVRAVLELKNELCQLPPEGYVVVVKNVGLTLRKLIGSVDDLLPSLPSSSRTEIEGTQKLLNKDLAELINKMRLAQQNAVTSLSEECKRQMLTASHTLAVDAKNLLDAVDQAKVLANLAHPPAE

SMILES	Cell Proliferation IC50 (U-251) [µM]	% residual kinase activity [1] [%]	% residual kinase activity [2] [%]	% residual kinase activity [3] [%]	% residual kinase activity [4] [%]	% residual kinase activity [5] [%]	% residual kinase activity [6] [%]	% residual kinase activity [7] [%]	Cell Proliferation IC50 (A2780) [µM]	% residual kinase activity [8] [%]	IC50 (Aurora kinase A) [nM]	% residual kinase activity [9] [%]	residual activity [10] [%]
CCc1ccccc1C(=O)Nc1n[nH]c2c(C)c(F)c(C3C(C#N)=C(C)N(C)C(C)=C3C#N)cc12 [BAY-3827]	20.9	73	109	110	115	1	76	94	>33	90	480	34	–
CC1=C(C#N)C(c2ccc3c(c2)c(NC(=O)c2ccccc2C)nn3C)C(C#N)=C(C)N1 [BAY-974]	–	–	–	–	–	–	–	–	–	–	–	–	100
